Results published in US4665083A, “Iminothiazolidine derivatives” (priority 1984, dated 1987).
Read-outs that look alike come from different tables or passages of the source.

Tests used:
maximum electroshock = test: animal or person; assay type: in vivo; conditions: for ED50: Mus musculus, po, read-out: Inhibition of maximum electroshock ED50; for Therapeutical index (inhibition of maximum electroshock): LD50 and ED50 electroshock, mice
Experimental: (7) Maximum inhibition of electroshock
The examination is carried out on mice weighing 20 to 25 g according to Swinyard. Electroshocks having the parameters of 50 Hz, 45 mA and 0.4 sec are employed by means of corneal electrodes. The complete inhibition of the tonic spasm of the lower limb extensor is taken as the criterium of the anticonvulsive action.

in vivo = conditions: mouse, mice, 7 days observation, Litchfield-Wilcoxon
Experimental: (1) Acute toxicity on mice
The acute toxicity is determined on mice of both sex (CFLP breed, body weight 18 to 22 g). For each dosis 6 animals are employed. The compounds tested are administered orally in a volume of 20 ml/kg body weight. After the administration the animals are observed for 7 days. During this period the animals are fed with standard mouse feed and water ad libitum. The toxicity values are determined according to Litchfield-Wilcoxon's method.

pentatetrazole spasm = test: animal or person; assay type: in vivo; conditions: for ED50: Mus musculus, po, read-out: Inhibition of pentatetrazole spasm ED50; for Therapeutical index (inhibition of pentatetrazole spasm): LD50 and ED50 pentatetrazole spasm, mice
Experimental: (6) Inhibition of pentatetrazole spasm
The test is performed on mice according to a modified method of Banziger and Hane.

intestinal peristalsis = test: animal or person; assay type: in vivo; conditions: for Therapeutical index (inhibition of intestinal peristalsis): LD50 and ED50 intestinal peristalsis, mice; for ED50: Mus musculus, po, read-out: Inhibition of intestinal peristalsis ED50
Experimental: (8) Antiperistaltic effect on mice
The antiperistaltic effect of the compounds is examined on mice weighing 20 to 25 g according to the method of Stickney and co-workers. Each dosis of the compound to be tested is administered, orally, 60 minutes prior to the administration of a 10 percent carbon suspension. […] 20 minutes after the administration of the carbon suspension, the animals are sacrificed, and the length of the entire small intestine as well as that of the small intestine filled with carbon are determined. The inhibition in relation to the control is calculated in percentage. […] From the values thus-transformed ED50 values are calculated.

acetic acid writhing = test: animal or person; assay type: in vivo; conditions: for Therapeutical index (analgesic effect, writhing test): LD50 and ED50 writhing test, mice; for ED50: Mus musculus, ip, read-out: Analgesic effect (writhing test) ED50
Experimental: (9) Analgesic effect on mice (writhing test)
The test is carried out on mice according to the modified method of Newbould. 0.75 percent acetic acid is administered to the animals in a volume of 20 ml/kg, intraperitoneally, and the characteristic "writhing reactions" are counted for a period of 5 minutes, starting from the fifth minute after challenge. […] The inhibition relative to the control group is evaluated in percentage.

nicotine lethality = test: Inhibition of nicotine spasm / nicotine lethality; assay type: in vivo, mice; conditions: for Therapeutical index (inhibition of nicotine lethality): LD50 and ED50 nicotine lethality; for ED50: Mus musculus, read-out: Inhibition of nicotine lethality ED50
Experimental: (5) Inhibition of nicotine spasm
The test is carried out on mice according to Stone.

Tetrabenazine ptosis = test: animal or person; assay type: in vivo; conditions: for Therapeutical index (tetrabenazine ptosis antagonism): LD50 and ED50 tetrabenazine ptosis, mice; for ED50: Mus musculus, po, read-out: Tetrabenazine ptosis antagonism ED50
Experimental: (2) Tetrabenazine ptosis antagonism on mice
The tetrabenazine ptosis antagonism of the compounds are tested on groups consisting of 10 mice each. […] 30 minutes after the introduction of the active agent or the vehicle, 50 mg/kg of tetrabenazine (3-isobutyl-9,10-[…]-1,2,3,4,6,7-hexahydrobenzo[a]quinolizine-2-one) are administered, intraperitoneally, and the animals with ptosis are counted 30, 60, 90 and 120 minutes after the administration of the tetrabenazine.
Evaluation: the average ptosis value is calculated in each group, and the deviation from the average obtained for the control group (inhibition) is given in percentage. From the data obtained ED50 values are calculated.

Reserpine ptosis = test: animal or person; assay type: in vivo; conditions: for Therapeutical index (reserpine ptosis antagonism): LD50 and ED50 reserpine ptosis, mice; for ED50: Mus musculus, sc, 1 h, read-out: Reserpine ptosis antagonism ED50
Experimental: (3) Reserpine ptosis antagonism on mice
Each group consisting of 10 mice are treated with 6 mg/kg of reserpine, subcutaneously. […] The animals with ptosis are counted 60 and 120 minutes after the administration of the compounds to be tested. Evaluation is carried out as given under point (2) above.

yohimbine toxicity = test: animal or person; assay type: in vivo; conditions: for Therapeutical index (potentiation of yohimbine toxicity): LD50 and ED50 yohimbine toxicity, mice; for ED50: Mus musculus, ip, read-out: Potentiation of yohimbine toxicity ED50
Experimental: (4) Yohimbine toxicity test on mice.
The examination is performed according to Quinton's method. Each group of animals consisting of 10 mice are treated with the compounds to be tested and the vehicle without active agent, respectively. After one hour a sublethal dosage of yohimbine in a volume of 20 ml/kg body weight is administered to the test groups, intraperitoneally. The number of the dead animals is recorded 1 and 24 hours after the administration of yohimbine.

[1] = mice, oral, 1 hour before 1.4 mg/kg i.v. nicotine

SMILES | ED50 (pentatetrazole spasm) [mg/kg] | LD50 at 168 h (in vivo; po) [mg/kg] | Therapeutical index (inhibition of intestinal peristalsis) (intestinal peristalsis) | ED50 (intestinal peristalsis) [mg/kg] | Therapeutical index (analgesic effect, writhing test) (acetic acid writhing) | ED50 (acetic acid writhing) [mg/kg] | Therapeutical index (inhibition of nicotine lethality) (nicotine lethality; mice) | Therapeutical index (tetrabenazine ptosis antagonism) (Tetrabenazine ptosis) | ED50 (Tetrabenazine ptosis) [mg/kg] | Therapeutical index (reserpine ptosis antagonism) (Reserpine ptosis) | ED50 (Reserpine ptosis) [mg/kg] | Therapeutical index (inhibition of pentatetrazole spasm) (pentatetrazole spasm) | also measured
CN1C(=O)OC(C)(C)C1=O [Trimethadion, reference compound] | 490 | – | – | – | – | – | – | – | – | – | – | – | ED50 (maximum electroshock): 400 mg/kg; LD50 at 168 h (in vivo; oral): 2050 mg/kg
N=C1SCCN1c1ccccc1[N+](=O)[O-] [Compound 10, 3-(2-nitrophenyl)-2-iminothiazolidine] | – | 700 | 5 | 140 | 17.5 | 40 | 24 | – | – | – | – | – | ED50 (nicotine lethality; po): 50 mg/kg
COc1ccc(Cc2nccc3cc(OC)c(OC)cc23)cc1OC [Papaverine, reference compound] | – | – | 2.01 | 185 | – | – | – | – | – | – | – | – | LD50 at 168 h (in vivo; oral): 380 mg/kg
CC(=O)Nc1ccc(O)cc1 [Paracetamol, reference compound] | – | – | – | – | – | 180 | – | – | – | – | – | – | –
N=C1SCCN1c1ccc(N)cc1[N+](=O)[O-] [Compound 15, 3-(4-amino-2-nitrophenyl)-2-iminothiazolidine] | – | 1200 | 12 | 130 | 10.4 | 115 | – | – | – | – | – | – | –
OC(CCN1CCCCC1)(c1ccccc1)C1CCCCC1 (stereo not drawn) [Trihexyphenidyl, reference compound] | – | – | – | – | – | – | – | – | – | – | – | – | ED50 (nicotine lethality; [1]): 40 mg/kg
Cl.Cl.N=C1SCCN1c1ccc(Cl)cc1N [Compound 1, 3-(2-amino-4-chlorophenyl)-2-iminothiazolidine dihydrochloride] | 22 | – | – | – | – | – | 5.6 | 39 | 18 | 14 | 50 | 31.8 | Therapeutical index (inhibition of maximum electroshock) (maximum electroshock): 10; ED50 (maximum electroshock): 70 mg/kg; LD50 at 168 h (in vivo; oral): 700 mg/kg; ED50 (nicotine lethality; po): 25 mg/kg
N=C1SCCN1c1ccc(C(F)(F)F)cc1N [Compound 4 (diethanesulfonate)] | – | – | 52 | 25 | 8.1 | 160 | – | – | – | – | – | – | –
CCS(=O)(=O)O.CCS(=O)(=O)O.COc1ccc(N2CCSC2=N)c(N)c1 [Compound 7 (diethanesulfonate), 2-imino-3-(2'-amino-4'-methoxyphenyl)-thiazolidine di(ethanesulfonate)] | – | 2000 | 10 | 200 | – | – | – | – | – | – | – | – | –
Cl.N=C1SCCN1c1ccc(Cl)cc1[N+](=O)[O-] [Compound 5, 3-(4-chloro-2-nitrophenyl)-2-iminothiazolidine hydrochloride] | 66 | 1100 | – | – | – | – | 122 | – | – | – | – | 16.6 | ED50 (nicotine lethality; [1]): 9 mg/kg
CC1CSC(=N)N1c1ccc(Cl)cc1N.Cl.Cl (stereo not drawn) [Compound 3, 3-(2-amino-4-chlorophenyl)-2-imino-4-methylthiazolidine dihydrochloride] | 7.8 | 200 | – | – | – | – | 31.3 | 67 | 3 | 67 | 3 | 25.6 | Therapeutical index (inhibition of maximum electroshock) (maximum electroshock): 14.2; ED50 (maximum electroshock): 14 mg/kg; ED50 (nicotine lethality; [1]): 6.4 mg/kg
Cl.N=C1SCCN1c1ccc(C(F)(F)F)cc1N [Compound 4, 3-(2-amino-4-trifluoromethylphenyl)-2-iminothiazolidine hydrochloride] | 160 | 1300 | 19.7 | 66 | – | – | – | 32.5 | 40 | 38 | 34 | 8.1 | –
COc1ccc(N2CCSC2=N)c(N)c1.Cl.Cl [Compound 7, 3-(2-amino-4-methoxyphenyl)-2-iminothiazolidine dihydrochloride] | – | 1200 | – | – | – | – | – | 75 | 16 | – | – | – | –
N=C1SCCN1c1ccc(N)cc1 [Compound 14, 3-(4-aminophenyl)-2-imino-1,3-thiazolidine] | – | 400 | 4.4 | 50 | – | – | – | – | – | – | – | – | Therapeutical index (potentiation of yohimbine toxicity) (yohimbine toxicity): 20.0; ED50 (yohimbine toxicity): 20 mg/kg
CN(C)CCC=C1c2ccccc2CCc2ccccc21 [Amitriptylin, reference compound] | – | – | – | – | – | – | – | 18.7 | 12 | 3.5 | 65 | – | Therapeutical index (potentiation of yohimbine toxicity) (yohimbine toxicity): 18; ED50 (yohimbine toxicity): 12.5 mg/kg
Cl.N=C1SCCN1c1ccc(C(F)(F)F)cc1[N+](=O)[O-] [Compound 6, 3-(2-nitro-4-trifluoromethylphenyl)-2-iminothiazolidine hydrochloride] | – | 800 | 100 | 8 | – | – | – | – | – | – | – | – | –
Br.COc1ccc(N2CCSC2=N)c([N+](=O)[O-])c1 [Compound 11, 3-(4-methoxy-2-nitrophenyl)-2-iminothiazolidine hydrobromide] | 34 | 650 | 6.2 | 105 | – | – | 14.4 | 16.3 | 40 | 16.3 | 40 | 19.11 | ED50 (nicotine lethality; [1]): 45 mg/kg
Cc1ccc(N2CCSC2=N)c(N)c1 [Compound 13, 3-(2-amino-4-methylphenyl)-2-iminothiazolidine] | – | 1300 | – | – | 8.1 | 160 | 130 | – | – | 18.5 | 70 | – | Therapeutical index (potentiation of yohimbine toxicity) (yohimbine toxicity): 25; ED50 (yohimbine toxicity): 52 mg/kg; ED50 (nicotine lethality; [1]): 10 mg/kg
N=C1SCCN1c1cc(Cl)ccc1[N+](=O)[O-] [Compound 9, 3-(5-chloro-2-nitrophenyl)-2-iminothiazolidine] | – | 700 | 38.9 | 18 | 13 | 54 | – | – | – | – | – | – | –
Cl.Cl.N=C1SCCN1c1cc(Cl)ccc1N [Compound 2, 3-(2-amino-5-chlorophenyl)-2-iminothiazolidine dihydrochloride] | 78 | 800 | – | – | 18.6 | 43 | – | 32 | 25 | – | – | 10.2 | Therapeutical index (potentiation of yohimbine toxicity) (yohimbine toxicity): 16; ED50 (yohimbine toxicity): 50 mg/kg
